Assay results as given in PubChem BioAssay (NCI).
Several values for one entry are separate records, joined by “and”; a condition that tells them apart may be missing. Equal values may be shown once.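 In this assay, cells in 96-well plates receive the compound at five concentrations for 48 hours. Endpoints are linearly interpolated between the surrounding concentrations. The concentration for 50% growth inhibition is given as GI50. TGI: concentration producing complete growth inhibition.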

Experiments:
Experiment in all cases: NCI tumour cell line growth inhibition, 48 h
DU-145 prostate = tested on: DU-145 prostate
BT-549 breast = tested on: BT-549 breast
SNB-19 CNS = tested on: SNB-19 CNS
T-47D breast = tested on: T-47D breast
HOP-92 NSCLC = tested on: HOP-92 NSCLC
OVCAR-8 ovarian = tested on: OVCAR-8 ovarian
PC-3 prostate = tested on: PC-3 prostate
OVCAR-3 ovarian = tested on: OVCAR-3 ovarian
CAKI-1 renal = tested on: CAKI-1 renal
LOX IMVI melanoma = tested on: LOX IMVI melanoma
UO-31 renal = tested on: UO-31 renal
EKVX NSCLC = tested on: EKVX NSCLC
SNB-75 CNS = tested on: SNB-75 CNS
RPMI-8226 leukemia = tested on: RPMI-8226 leukemia
MDA-MB-468 breast = tested on: MDA-MB-468 breast
HT29 colon = tested on: HT29 colon
RXF 393 renal = tested on: RXF 393 renal
SK-MEL-2 melanoma = tested on: SK-MEL-2 melanoma
SR leukemia = tested on: SR leukemia
UACC-62 melanoma = tested on: UACC-62 melanoma
UACC-257 melanoma = tested on: UACC-257 melanoma
SF-539 CNS = tested on: SF-539 CNS
HCT-15 colon = tested on: HCT-15 colon
MDA-MB-231 breast = tested on: MDA-MB-231 breast
HOP-62 NSCLC = tested on: HOP-62 NSCLC
OVCAR-5 ovarian = tested on: OVCAR-5 ovarian
SK-MEL-28 melanoma = tested on: SK-MEL-28 melanoma
M14 melanoma = tested on: M14 melanoma
CCRF-CEM leukemia = tested on: CCRF-CEM leukemia
SW-620 colon = tested on: SW-620 colon
MDA-MB-435 = tested on: MDA-MB-435
A498 renal = tested on: A498 renal
786-0 renal = tested on: 786-0 renal
NCI-H226 lung = tested on: NCI-H226 lung
HL-60(TB) leukemia = tested on: HL-60(TB) leukemia
TK-10 renal = tested on: TK-10 renal
ACHN renal = tested on: ACHN renal
K-562 leukemia = tested on: K-562 leukemia
NCI-H522 lung = tested on: NCI-H522 lung
NCI/ADR-RES ovarian = tested on: NCI/ADR-RES ovarian
SK-OV-3 ovarian = tested on: SK-OV-3 ovarian
MOLT-4 leukemia = tested on: MOLT-4 leukemia
HCC-2998 colon = tested on: HCC-2998 colon
COLO 205 colon = tested on: COLO 205 colon
MALME-3M melanoma = tested on: MALME-3M melanoma
KM12 colon = tested on: KM12 colon
SF-268 CNS = tested on: SF-268 CNS
MCF7 breast = tested on: MCF7 breast
HS 578T breast = tested on: HS 578T breast
OVCAR-4 ovarian = tested on: OVCAR-4 ovarian
HCT-116 colon = tested on: HCT-116 colon
NCI-H23 lung = tested on: NCI-H23 lung
SN12C renal = tested on: SN12C renal

COc1cc2cc(C(=O)N3C[C@@H](CCl)c4c3cc(OC(=O)N3CCN(C(=O)CCC(=O)N5CCN(C)CC5)[C@@H]5CSSC[C@@H]53)c3ccccc43)[nH]c2c(OC)c1OC
GI50 (DU-145 prostate): 13.6 nM and 24.5 nM
TGI (DU-145 prostate): 25000 nM and 10200 nM
GI50 (BT-549 breast): 41 nM and 144 nM
TGI (BT-549 breast): 132 nM and 413 nM
GI50 (SNB-19 CNS): 34 nM and 90.8 nM
TGI (SNB-19 CNS): 25000 nM and 16000 nM
GI50 (T-47D breast): 118 nM and 229 nM
TGI (T-47D breast): 25000 nM and 19700 nM
GI50 (HOP-92 NSCLC): 95.1 nM and 178 nM
TGI (HOP-92 NSCLC): 875 nM and 752 nM
GI50 (OVCAR-8 ovarian): 42.5 nM
TGI (OVCAR-8 ovarian): 160 nM
GI50 (PC-3 prostate): 57.7 nM and 479 nM
TGI (PC-3 prostate): 25000 nM and 10500 nM
GI50 (OVCAR-3 ovarian): 53.9 nM
TGI (OVCAR-3 ovarian): 131 nM
GI50 (CAKI-1 renal): 101 nM and 172 nM
TGI (CAKI-1 renal): 1470 nM and 701 nM
GI50 (LOX IMVI melanoma): 37.6 nM and 69.2 nM
TGI (LOX IMVI melanoma): 114 nM and 276 nM
GI50 (UO-31 renal): 75 nM
TGI (UO-31 renal): 2840 nM
GI50 (EKVX NSCLC): 71.7 nM and 207 nM
TGI (EKVX NSCLC): 403 nM and 1380 nM
GI50 (SNB-75 CNS): 41.8 nM and 79.8 nM
TGI (SNB-75 CNS): 148 nM and 354 nM
GI50 (RPMI-8226 leukemia): 64.6 nM and 142 nM
TGI (RPMI-8226 leukemia): 2720 nM and 13200 nM
GI50 (MDA-MB-468 breast): 37.3 nM
TGI (MDA-MB-468 breast): 161 nM
GI50 (HT29 colon): 57.9 nM and 142 nM
GI50 (RXF 393 renal): 37.4 nM and 34.7 nM
TGI (RXF 393 renal): 74.8 nM and 138 nM
GI50 (SK-MEL-2 melanoma): 47.1 nM and 42.8 nM
TGI (SK-MEL-2 melanoma): 93.5 nM and 131 nM
GI50 (SR leukemia): 6.22 nM and 19.5 nM
GI50 (UACC-62 melanoma): 43.6 nM and 136 nM
TGI (UACC-62 melanoma): 158 nM and 324 nM
GI50 (UACC-257 melanoma): 131 nM and 273 nM
TGI (UACC-257 melanoma): 711 nM and 1430 nM
GI50 (SF-539 CNS): 38.5 nM and 38.9 nM
TGI (SF-539 CNS): 91.3 nM and 151 nM
GI50 (HCT-15 colon): 65.5 nM and 244 nM
TGI (HCT-15 colon): 1070 nM and 10500 nM
GI50 (MDA-MB-231 breast): 64 nM and 204 nM
TGI (MDA-MB-231 breast): 160 nM and 536 nM
GI50 (HOP-62 NSCLC): 41.3 nM
TGI (HOP-62 NSCLC): 231 nM
GI50 (OVCAR-5 ovarian): 82.8 nM
TGI (OVCAR-5 ovarian): 386 nM
GI50 (SK-MEL-28 melanoma): 47.6 nM and 159 nM
TGI (SK-MEL-28 melanoma): 106 nM and 333 nM
GI50 (M14 melanoma): 36.6 nM and 124 nM
TGI (M14 melanoma): 118 nM and 377 nM
GI50 (CCRF-CEM leukemia): 270 nM
TGI (CCRF-CEM leukemia): > 100000 nM
GI50 (SW-620 colon): 55.5 nM
TGI (SW-620 colon): 25000 nM
GI50 (MDA-MB-435): 46.6 nM and 147 nM
TGI (MDA-MB-435): 102 nM and 298 nM
GI50 (A498 renal): 122 nM and 218 nM
TGI (A498 renal): 1400 nM and 471 nM
GI50 (786-0 renal): 49 nM
TGI (786-0 renal): 135 nM
GI50 (NCI-H226 lung): 453 nM and 245 nM
TGI (NCI-H226 lung): 1670 nM and 3180 nM
GI50 (HL-60(TB) leukemia): 53 nM and 48 nM
TGI (HL-60(TB) leukemia): 1090 nM and 2390 nM
GI50 (TK-10 renal): 663 nM and 1050 nM
TGI (TK-10 renal): 25000 nM and 22200 nM
GI50 (ACHN renal): 30.5 nM
TGI (ACHN renal): 93.2 nM
GI50 (K-562 leukemia): 122 nM and 89.1 nM
TGI (K-562 leukemia): 25000 nM and 9070 nM
GI50 (NCI-H522 lung): 43.5 nM and 55.4 nM
TGI (NCI-H522 lung): 114 nM and 364 nM
GI50 (NCI/ADR-RES ovarian): 64.4 nM
TGI (NCI/ADR-RES ovarian): 268 nM
GI50 (SK-OV-3 ovarian): 72.2 nM
TGI (SK-OV-3 ovarian): 374 nM
GI50 (MOLT-4 leukemia): 12.4 nM and 62.8 nM
TGI (MOLT-4 leukemia): 25000 nM and 4720 nM
GI50 (HCC-2998 colon): 28.7 nM and 54.2 nM
TGI (HCC-2998 colon): 68.5 nM and 188 nM
GI50 (COLO 205 colon): 49.4 nM and 145 nM
TGI (COLO 205 colon): 133 nM and 315 nM
GI50 (MALME-3M melanoma): 45.9 nM and 134 nM
TGI (MALME-3M melanoma): 102 nM and 284 nM
GI50 (KM12 colon): 74.7 nM and 131 nM
GI50 (SF-268 CNS): 58.3 nM
TGI (SF-268 CNS): 608 nM
GI50 (MCF7 breast): 14.9 nM
TGI (MCF7 breast): 1590 nM
GI50 (HS 578T breast): 266 nM and 292 nM
TGI (HS 578T breast): 1830 nM and 2450 nM
GI50 (OVCAR-4 ovarian): 86.3 nM
TGI (OVCAR-4 ovarian): 662 nM
GI50 (HCT-116 colon): 154 nM
TGI (HCT-116 colon): 11600 nM
GI50 (NCI-H23 lung): 10.3 nM and 18.6 nM
TGI (NCI-H23 lung): 50.5 nM and 88.7 nM
GI50 (SN12C renal): 32.8 nM
TGI (SN12C renal): 7040 nM
